The values that follow come from patent US12030879B2, “Sulfonyl acetamides as NLRP3 inhibitors” (Inflazome Limited, priority 2018, dated 2024).

Bounds are passed on as bounds.

The target in this experiment is T1, NLRP3 (Homo sapiens, UniProt Q96P20).
T1 construct: Seed THP-1 cells (25,000 cells/well) containing 1.0 μg/ml LPS in 40 μl of RPMI medium; host or cells: THP-1 cells
T1 sequence (Q96P20 whole entry): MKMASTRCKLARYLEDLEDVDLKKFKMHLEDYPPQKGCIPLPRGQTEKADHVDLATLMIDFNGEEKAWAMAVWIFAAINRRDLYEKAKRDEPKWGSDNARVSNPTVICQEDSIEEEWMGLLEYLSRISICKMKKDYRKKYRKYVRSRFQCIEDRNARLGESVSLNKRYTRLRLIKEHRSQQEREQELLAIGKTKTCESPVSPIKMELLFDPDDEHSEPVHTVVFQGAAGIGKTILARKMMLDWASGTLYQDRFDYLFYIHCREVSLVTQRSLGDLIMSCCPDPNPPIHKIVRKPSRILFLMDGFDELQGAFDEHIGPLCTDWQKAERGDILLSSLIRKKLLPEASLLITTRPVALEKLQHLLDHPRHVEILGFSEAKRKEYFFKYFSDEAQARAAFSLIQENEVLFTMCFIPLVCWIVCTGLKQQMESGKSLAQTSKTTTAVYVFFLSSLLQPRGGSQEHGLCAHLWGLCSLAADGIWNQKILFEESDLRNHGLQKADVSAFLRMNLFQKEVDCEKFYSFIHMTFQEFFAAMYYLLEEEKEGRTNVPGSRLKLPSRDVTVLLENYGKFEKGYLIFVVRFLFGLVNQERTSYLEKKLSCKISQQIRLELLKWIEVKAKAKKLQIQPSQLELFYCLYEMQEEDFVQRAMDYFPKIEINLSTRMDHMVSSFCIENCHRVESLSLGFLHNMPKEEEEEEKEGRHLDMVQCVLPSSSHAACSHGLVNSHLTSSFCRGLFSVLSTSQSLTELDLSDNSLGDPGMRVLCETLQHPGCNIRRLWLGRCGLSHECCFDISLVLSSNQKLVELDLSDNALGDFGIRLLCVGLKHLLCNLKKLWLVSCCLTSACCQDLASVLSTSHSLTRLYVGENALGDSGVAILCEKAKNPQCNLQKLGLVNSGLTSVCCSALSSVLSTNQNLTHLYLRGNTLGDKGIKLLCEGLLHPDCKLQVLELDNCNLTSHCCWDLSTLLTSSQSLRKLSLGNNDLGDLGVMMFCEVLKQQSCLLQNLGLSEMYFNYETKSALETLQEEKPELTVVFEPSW
Briefly: THP-1 cells pyroptosis assay. The experiment is classed as cell-based. The following applies: LPS 1 μg/ml, compound 3 hrs, nigericin 5 μM 1 hr, resazurin readout. Summed up:
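LPS-primed (1 μg/ml) THP-1 cells in serum-free RPMI were treated 3 h with compound (8-point half-log, top 10 μM; 0.1% DMSO), then with 5 μM nigericin for 1 h at 37°C. Viability was read by 100 μM resazurin (ex 560/em 590 nm) after 1–2 h. IC50 came from 4-parameter nonlinear regression.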
Compound `COc1cc(-c2cc(F)cc(C(C)C)c2CC(=O)NS(=O)(=O)c2c(C)cc(N(C)C)cc2C)ccn1` [Example 146] displayed an IC50 of at most 10 µM.
`COc1cc(-c2c(CC(=O)NS(=O)(=O)c3cc(C(C)(C)O)cs3)c(C(C)C)nn2C)ccn1` [Example 147] displayed an IC50 of at most 5 µM.
Next, `COc1cncc(-c2cc(F)cc(C(C)C)c2CC(=O)NS(=O)(=O)c2cc(C(C)(C)O)cs2)c1` [Example 148]: at most 5 µM.
Consider `COc1cc(-c2cc(F)cc(C(C)C)c2CC(=O)NS(=O)(=O)c2cc(C(C)(C)O)c(F)cc2F)ccn1` [Example 149], for which the IC50 is at most 0.5 µM.
The compound `C=C(C)c1csc(S(=O)(=O)NC(=O)Cc2c(-c3ccnc(OC)c3)cc(F)cc2C(C)C)c1` [Example 150] gave an IC50 of at most 0.5 µM.
The figure for `COc1cc(-c2cc(F)cc(C(C)C)c2CC(=O)NS(=O)(=O)c2ccc(C3CC3)cc2C)ccn1` [Example 151] is at most 0.5 µM.
The figure for `COc1cc(-c2cc(F)cc(C(C)C)c2CC(=O)NS(=O)(=O)c2c(C)nn(C(C)C)c2C)ccn1` [Example 152] is at most 5 µM.
`COc1cc(-c2cc(F)cc(C(C)C)c2CC(=O)NS(=O)(=O)c2cc(N(C)C)ccc2C)ccn1` [Example 153] came in with an IC50 of at most 5 µM.
The figure for `C=C(C)c1csc(S(=O)(=O)NC(=O)Cc2c(C(C)C)nn(C)c2-c2ccnc(OC)c2)c1` [Example 154] is at most 0.5 µM; for `CNc1cc(C)c(S(=O)(=O)NC(=O)Cc2c(-c3ccnc(OC)c3)cc(F)cc2C(C)C)cc1C` [Example 155] it is at most 5 µM.
The figure for `COc1cc(-c2cc(F)cc(C(C)C)c2CC(=O)NS(=O)(=O)c2cc(C(C)C)c(F)cc2F)ccn1` [Example 156] is at most 0.5 µM; for `COc1cc(-c2cc(F)cc(C(C)C)c2CC(=O)NS(=O)(=O)c2ccc(C(C)C)cc2C)ccn1` [Example 157] it is at most 0.5 µM; for `CC(C)c1cc(F)cc(-c2ccnc(O)c2)c1CC(=O)NS(=O)(=O)c1cc(C(C)(C)O)cs1` [Example 158] it is at most 5 µM.
Next, `COc1cc(-c2cc(F)cc(C(C)C)c2CC(=O)NS(=O)(=O)c2cc(C(C)(C)O)c(C)s2)ccn1` [Example 159]: at most 0.5 µM; `COc1cc(-c2cc(F)cc(C(C)C)c2CC(=O)NS(=O)(=O)c2cc(C(C)(C)O)nn2C)ccn1` [Example 160]: at most 5 µM.
For `COc1cc(-c2cc(F)cc(C(C)C)c2CC(=O)NS(=O)(=O)c2c(Cl)cc(N(C)C)cc2Cl)ccn1` [Example 161], the IC50 is at most 5 µM.
The figure for `COc1cc(-c2cc(F)cc(C(C)C)c2CC(=O)NS(=O)(=O)c2cnc(N(C)C)cc2C)ccn1` [Example 162] is at most 5 µM.
The figure for `C=C(C)c1csc(S(=O)(=O)NC(=O)Cc2c(-c3ccnc(OC)c3)nn(C)c2C(C)C)c1` [Example 163] is at most 10 µM.
For `C=C(C)c1ccc(S(=O)(=O)NC(=O)Cc2c(-c3ccnc(OC)c3)cc(F)cc2C(C)C)c(C)c1` [Example 164], the half-inhibitory concentration (IC50) was at most 0.5 µM.
In turn, `C=C(C)c1cc(S(=O)(=O)NC(=O)Cc2c(-c3ccnc(OC)c3)cc(F)cc2C(C)C)c(F)cc1F` [Example 165] yielded an IC50 of at most 0.5 µM.
For `COc1cc(-c2cc(F)cc(C(C)C)c2CC(=O)NS(=O)(=O)c2cc(Br)c(F)cc2F)ccn1` [Example 166], the 50% inhibitory concentration (IC50) was at most 0.5 µM.
In turn, `COc1cc(-c2cc(F)cc(C(C)C)c2CC(=O)NS(=O)(=O)c2cc(C(C)(C)O)ccc2C)ccn1` [Example 167] came in with an IC50 of at most 5 µM.
Next, `COc1cc(-c2cc(F)cc(C(C)C)c2CC(=O)NS(=O)(=O)c2c(C)nn(CC(F)(F)F)c2C)ccn1` [Example 168]: at most 5 µM; `COc1cc(-c2cc(F)cc(C(C)C)c2CC(=O)NS(=O)(=O)c2cn(CC(F)F)nc2C)ccn1` [Example 169]: at most 5 µM.
The figure for `COc1cc(-c2cc(F)cc(C(C)C)c2CC(=O)NS(=O)(=O)c2cc(C(C)(C)O)ccn2)ccn1` [Example 170] is at most 0.5 µM.
In turn, `COc1cc(-c2cc(F)cc(C(C)C)c2CC(=O)NS(=O)(=O)c2ccc(C(C)(C)O)nc2)ccn1` [Example 171] showed a half-inhibitory concentration (IC50) of at most 5 µM.
The figure for `COc1cc(-c2cc(F)cc(C(C)C)c2CC(=O)NS(=O)(=O)c2c(C)nn(CC(C)C)c2C)ccn1` [Example 172] is at most 5 µM; for `COc1cc(-c2cc(F)cc(C(C)C)c2CC(=O)NS(=O)(=O)c2cn(C(C)C)nc2C)ccn1` [Example 173] it is at most 0.5 µM; for `COc1cc(-c2cc(F)cc(C(C)C)c2CC(=O)NS(=O)(=O)c2cc(C(=O)N(C)C)c(C)s2)ccn1` [Example 174] it is at most 0.5 µM.
`COc1cc(-c2cc(F)cc(C(C)C)c2CC(=O)NS(=O)(=O)c2c(C)nn(CC(F)F)c2C)ccn1` [Example 175]: the IC50 is at most 5 µM.
The compound `COC(=O)c1cc(S(=O)(=O)NC(=O)Cc2c(-c3ccnc(OC)c3)cc(F)cc2C(C)C)sc1C` [Example 176] had an IC50 of at most 0.5 µM.
For `COc1cc(-c2cc(F)cc(C(C)C)c2CC(=O)NS(=O)(=O)c2ccc(CCN(C)C)cc2)ccn1` [Example 177], the IC50 was at most 5 µM.
The figure for `COc1cc(-c2cc(F)cc(C(C)C)c2CC(=O)NS(=O)(=O)c2cc(Br)c(Cl)cc2C)ccn1` [Example 178] is at most 1 µM.
The figure for `CCC(C)(O)c1ccc(S(=O)(=O)NC(=O)Cc2c(-c3ccnc(OC)c3)cc(F)cc2C(C)C)cc1F` (stereo not drawn) [Example 179] is at most 0.5 µM.
`COc1cc(-c2cc(F)cc(C(C)C)c2CC(=O)NS(=O)(=O)c2cccc(CN(C)C)c2)ccn1` [Example 180]: the IC50 was at most 5 µM.
The figure for `COc1cc(-c2cc(F)cc(C(C)C)c2CC(=O)NS(=O)(=O)c2ccnc(C(C)(C)O)c2)ccn1` [Example 181] is at most 0.5 µM; for `CNC(=O)c1ccc(S(=O)(=O)NC(=O)Cc2c(-c3ccnc(OC)c3)cc(F)cc2C(C)C)c(C)c1` [Example 182] it is at most 10 µM.
The compound `COc1cc(-c2cc(F)cc(C(C)C)c2CC(=O)NS(=O)(=O)c2cc(Br)cs2)ccn1` [Example 183] displayed an IC50 of at most 1 µM.
Compound `COc1cc(-c2cc(F)cc(C(C)C)c2CC(=O)NS(=O)(=O)c2ccc(-c3cnco3)cc2)ccn1` [Example 184] showed an IC50 of at most 1 µM.
In turn, `COc1cc(-c2cc(F)cc(C(C)C)c2CC(=O)NS(=O)(=O)c2ccc(C(C)C)cn2)ccn1` [Example 185] gave a half-maximal inhibitory concentration (IC50) of at most 0.5 µM.
The figure for `Cc1cc(C(C)(C)O)ccc1S(=O)(=O)NC(=O)Cc1c(-c2ccncc2)cc(F)cc1C(C)C` [Example 186] is at most 0.5 µM.
Next, `COc1cc(-c2cc(F)cc(C(C)C)c2CC(=O)NS(=O)(=O)c2ccc(CC#N)cc2)ccn1` [Example 187]: at most 5 µM.
The figure for `COc1cc(-c2cc(F)cc(C(C)C)c2CC(=O)NS(=O)(=O)c2nc(C)cc(C)n2)ccn1` [Example 188] is at most 10 µM; for `Cc1cc(C(C)(C)O)ccc1S(=O)(=O)NC(=O)Cc1c(-c2ccnc(C#N)c2)ccc2c1CCC2` [Example 189] it is at most 0.5 µM; for `COc1cc(-c2cc(F)cc(C(C)C)c2CC(=O)NS(=O)(=O)c2ccc(C(C)(C)C#N)cc2)ccn1` [Example 190] it is at most 5 µM.
In the case of `COc1cc(-c2cc(F)cc(C(C)C)c2CC(=O)NS(=O)(=O)c2cncc(N(C)C)n2)ccn1` [Example 191], the IC50 is at most 1 µM.
Compound `COc1cc(-c2cc(F)cc(C(C)C)c2CC(=O)NS(=O)(=O)c2ccn(C(C)(C)CN(C)C)n2)ccn1` [Example 192] had an IC50 of at most 5 µM.
Compound `COc1cc(-c2cc(F)cc(C(C)C)c2CC(=O)NS(=O)(=O)c2cnn(CC(C)(C)O)c2)ccn1` [Example 193] yielded a 50% inhibitory concentration (IC50) of at most 5 µM.
The figure for `COCC(C)(C)n1ccc(S(=O)(=O)NC(=O)Cc2c(-c3ccnc(OC)c3)cc(F)cc2C(C)C)n1` [Example 194] is at most 5 µM; for `COc1cc(-c2cc(F)cc(C(C)C)c2CC(=O)NS(=O)(=O)c2ccn(C(C)(C)CO)n2)ccn1` [Example 195] it is at most 5 µM; for `COc1cc(-c2cc(F)cc(C(C)C)c2CC(=O)NS(=O)(=O)c2cc(C(C)(C)O)n(C(C)C)n2)ccn1` [Example 196] it is at most 10 µM.
Next, `COc1cc(-c2cc(F)cc(C(C)C)c2CC(=O)NS(=O)(=O)c2cc(C(C)(C)O)n(C)n2)ccn1` [Example 197]: at most 5 µM; `COc1cc(-c2cc(F)cc(C(C)C)c2CC(=O)NS(=O)(=O)c2cncc(C(C)(C)O)c2)ccn1` [Example 198]: at most 0.5 µM.
As for `CCC(O)(CC)c1cc(S(=O)(=O)NC(=O)Cc2c(-c3ccnc(OC)c3)cc(F)cc2C(C)C)sc1C` [Example 199], the IC50 is at most 0.5 µM.
`CC(C)c1cc(S(=O)(=O)NC(=O)Cc2c(-c3cccnc3)cc(F)cc2C(C)C)c(F)cc1F` [Example 200]: the IC50 was at most 0.5 µM.
Next, `CC(C)c1cc(S(=O)(=O)NC(=O)Cc2c(-c3ccncc3)cc(F)cc2C(C)C)c(F)cc1F` [Example 201]: at most 0.5 µM; `Cc1nc(C(C)C)c(CC(=O)NS(=O)(=O)c2cc(C(C)C)c(F)cc2F)n1-c1ccncc1` [Example 202]: at most 5 µM.
The figure for `COc1ccncc1-c1cc(F)cc(C(C)C)c1CC(=O)NS(=O)(=O)c1cc(C(C)C)c(F)cc1F` [Example 203] is at most 0.5 µM; for `COc1cc(-c2ccc3c(c2CC(=O)NS(=O)(=O)c2cc(C(C)C)c(F)cc2F)CCC3)ccn1` [Example 204] it is at most 5 µM.
Compound `COc1cc(-c2cc(F)cc(C(C)C)c2CC(=O)NS(=O)(=O)c2cc(C(C)C)cs2)ccn1` [Example 205] had an IC50 of at most 0.5 µM.
In the case of `COc1cc(-c2cc(F)cc(C(C)C)c2CC(=O)NS(=O)(=O)c2cc(C(C)C)ccc2C)ccn1` [Example 206], the IC50 is at most 0.5 µM.
Next, `CCCn1cc(S(=O)(=O)NC(=O)Cc2c(-c3ccnc(OC)c3)cc(F)cc2C(C)C)c(C)n1` [Example 207]: at most 1 µM; `COc1cc(-c2cc(F)cc(C(C)C)c2CC(=O)NS(=O)(=O)c2cn(CC(C)C)nc2C)ccn1` [Example 208]: at most 5 µM.
